Test results from US20250170090A1, “METHOD FOR PREVENTING OR TREATING DISEASE OR DISORDER ASSOCIATED WITH ANTINEOPLASTIC AGENT” (ONQUALITY PHARMACEUTICALS CHINA LTD., priority 2022, published 2025).
Like-named read-outs stand apart in the source and are kept apart here.

Legend:
[1] = test system: HUVEC cells; test: CCK-8 cell viability: alleviation of proliferative toxicity of anti-tumor agents on HUVEC cells (Tables 7-1, 7-2); type: cell-based; details: for activation at 100 µM: Homo sapiens, 24 h, percentage increase in viable cells vs anti-tumor agent alone, read-out: Response rate % (average)
Procedure, shortened: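 HUVEC cells were treated with anti-tumor agent (DMSO solvent) alone or combined with NO-NSAID (ethanol or water solvent), and NO-NSAID solvent controls were used for correction. After 24-48 h of culture, viability was read by CCK-8 to derive proliferative toxicity and how much NO-NSAID mitigated it.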

[2] = test system: human oral keratinocytes (HOK); test: CCK-8 cell viability: alleviation of proliferative toxicity of anti-tumor agents on HOK (Table 8-2); type: cell-based; details: NO-NSAID 100 μM
Procedure: (§1) Experiments were conducted using various epithelial cells: Examples 47-51 used human immortalized keratinocytes (HaCaT) with corresponding results in Table 8-1; Examples 52-56 used human oral keratinocytes (HOK) with results in Table 8-2; Examples 57-61 used gastric epithelial cells (GES-1) with results in Table 8-3; Examples 62-66 used human intestinal epithelial cells (FHs 74 Int) with results in Table 8-4.
(§2) The cultured cells were digested the suspended, counted, and seed into a 96-well plate with 5,000-10,000 cells per well. The wells are divided into the following groups: blank control group, anti-tumor agent group, anti-tumor agent+NO-NSAID group, anti-tumor agent solvent group, NO-NSAID solvent control group. Wherein each well of each group contained a basic medium, and the final liquid volume contained in each well was about 100 μL. The grouping situation was as follows: • 1) Blank control group: no solution was added except normally replacing the medium; • 2) Anti-tumor agent group: added the anti-tumor agent solution (the final concentration was shown in Table 8-1 to Table 8-4, the solvent of the anti-tumor agent solution was DMSO); • 3) Anti-tumor agent+NO-NSAID group: added the anti-tumor agent solution and the NO-NSAID solution (the final concentrations of anti-tumor agent and NO-NSAID were shown in Table 8-1 to Table 8-4, and according to the solubility of NO-NSAID, the solvent of NO-NSAID solution was selected as ethanol or sterile water, and minor volume differences in each group were adjusted by added the corresponding solvent); • 4) Anti-tumor agent solvent group: an equal volume of DMSO as contained in the corresponding anti-tumor agent solution in Group 2) was added; • 5) NO-NSAID control group: the same volume and type of solvent (for example, ethanol or sterile water) corresponding to the NO-NSAID contained in group 3) was added.
(§3) The anti-tumor agent solvent group was not involved in data processing and was only used as a reference for evaluating experimental system error. The NO-NSAID solvent control group was used for data correction to eliminate the influence of the solvent on the results.
(§4) After culturing for 24-48 hours, the Cell Counting Kit-8 (CCK-8) detection kit (C0037, Shanghai Beyotime Biotechnology Co., Ltd., Beyotime Biotechnology) was used to determine the cell viability. This allows for the calculation of the proliferative toxicity of anti-tumor agent on cell and the mitigating effect of NO-NSAID on proliferative toxicity. The results were statistically analyzed and plotted using GraphPad Prism 6.0 software and t test.

[3] = test system: gastric epithelial cells (GES-1); test: CCK-8 cell viability: alleviation of proliferative toxicity of anti-tumor agents on GES-1 (Table 8-3); type: cell-based, human; details: NO-NSAID 100 μM
Procedure: as §1, §2, §3, §4

[4] = Afatinib (10 μM), NO-NSAID 100 μM
[5] = Cabozantinib (5 μM), NO-NSAID 100 μM
[6] = Dabrafenib (10 μM), NO-NSAID 100 μM
[7] = Everolimus (5 μM), NO-NSAID 100 μM
[8] = Infigratinib (15 μM), NO-NSAID 100 μM
[9] = Lapatinib (5 μM), NO-NSAID 100 μM
[10] = Lenvatinib (10 μM), NO-NSAID 100 μM
[11] = Olmutinib (10 μM), NO-NSAID 100 μM
[12] = Regorafenib (5 μM), NO-NSAID 100 μM
[13] = Selumetinib (5 μM), NO-NSAID 100 μM
[14] = Sorafenib (5 μM), NO-NSAID 100 μM
[15] = Sunitinib (5 μM), NO-NSAID 100 μM

CC(=O)Oc1ccccc1C(=O)Oc1cccc(CO[N+](=O)[O-])c1 [Compound A2]
NO-NSAID response rate % (average) ([1]; Afatinib (10 μM), NO-NSAID 0.1 μM): 15%
NO-NSAID response rate % (average) ([1]; Afatinib (10 μM), NO-NSAID 1 μM): 17%
NO-NSAID response rate % (average) [1, 4]: 46%
NO-NSAID response rate % (average) ([1]; Afatinib (10 μM), NO-NSAID 500 μM): 38%
NO-NSAID response rate % (average) ([1]; Cabozantinib (5 μM), NO-NSAID 0.1 μM): 3%
NO-NSAID response rate % (average) ([1]; Cabozantinib (5 μM), NO-NSAID 1 μM): 4%
NO-NSAID response rate % (average) [1, 5]: 10%
NO-NSAID response rate % (average) ([1]; Cabozantinib (5 μM), NO-NSAID 500 μM): 12%
NO-NSAID response rate % (average) ([1]; Dabrafenib (10 μM), NO-NSAID 0.1 μM): 23%
NO-NSAID response rate % (average) ([1]; Dabrafenib (10 μM), NO-NSAID 1 μM): 36%
NO-NSAID response rate % (average) [1, 6]: 49%
NO-NSAID response rate % (average) ([1]; Dabrafenib (10 μM), NO-NSAID 500 μM): 30%
NO-NSAID response rate % (average) ([1]; Everolimus (5 μM), NO-NSAID 0.1 μM): −11%
NO-NSAID response rate % (average) ([1]; Everolimus (5 μM), NO-NSAID 1 μM): −6%
NO-NSAID response rate % (average) [1, 7]: 33%
NO-NSAID response rate % (average) ([1]; Everolimus (5 μM), NO-NSAID 500 μM): −9%
activation at 100 µM [1, 4]: 46%
activation at 100 µM ([1]; Anlotinib (5 μM), NO-NSAID 100 μM): 78%
activation at 100 µM ([1]; Apatinib (10 μM), NO-NSAID 100 μM): 56%
activation at 100 µM ([1]; Axitinib (10 μM), NO-NSAID 100 μM): 77%
activation at 100 µM [1, 5]: 10%
activation at 100 µM [1, 6]: 49%
activation at 100 µM ([1]; Dacomitinib (5 μM), NO-NSAID 100 μM): 12%
activation at 100 µM ([1]; Encorafenib (5 μM), NO-NSAID 100 μM): 76%
activation at 100 µM ([1]; Erdafitinib (10 μM), NO-NSAID 100 μM): 49%
activation at 100 µM [1, 7]: 33%
activation at 100 µM ([1]; Famitinib (5 μM), NO-NSAID 100 μM): 31%
activation at 100 µM ([1]; Fruquintinib (10 μM), NO-NSAID 100 μM): 41%
activation at 100 µM ([1]; Gefitinib (10 μM), NO-NSAID 100 μM): 76%
activation at 100 µM [1, 8]: 73%
activation at 100 µM [1, 9]: 16%
activation at 100 µM [1, 10]: 34%
activation at 100 µM [1, 11]: 33%
activation at 100 µM [1, 12]: 50%
activation at 100 µM [1, 13]: 83%
activation at 100 µM [1, 14]: 56%
activation at 100 µM [1, 15]: 65%
activation at 100 µM ([1]; Vemurafenib (5 μM), NO-NSAID 100 μM): 54%
NO-NSAID response rate % (average) ([1]; Infigratinib (15 μM), NO-NSAID 0.1 μM): 30%
NO-NSAID response rate % (average) ([1]; Infigratinib (15 μM), NO-NSAID 1 μM): 18%
NO-NSAID response rate % (average) [1, 8]: 73%
NO-NSAID response rate % (average) ([1]; Infigratinib (15 μM), NO-NSAID 500 μM): 17%
NO-NSAID response rate % (average) ([1]; Lapatinib (5 μM), NO-NSAID 0.1 μM): 14%
NO-NSAID response rate % (average) ([1]; Lapatinib (5 μM), NO-NSAID 1 μM): 32%
NO-NSAID response rate % (average) [1, 9]: 16%
NO-NSAID response rate % (average) ([1]; Lapatinib (5 μM), NO-NSAID 500 μM): 20%
NO-NSAID response rate % (average) ([1]; Lenvatinib (10 μM), NO-NSAID 0.1 μM): 25%
NO-NSAID response rate % (average) ([1]; Lenvatinib (10 μM), NO-NSAID 1 μM): 24%
NO-NSAID response rate % (average) [1, 10]: 34%
NO-NSAID response rate % (average) ([1]; Lenvatinib (10 μM), NO-NSAID 500 μM): 31%
NO-NSAID response rate % (average) ([1]; Olmutinib (10 μM), NO-NSAID 0.1 μM): 24%
NO-NSAID response rate % (average) ([1]; Olmutinib (10 μM), NO-NSAID 1 μM): 24%
NO-NSAID response rate % (average) [1, 11]: 33%
NO-NSAID response rate % (average) ([1]; Olmutinib (10 μM), NO-NSAID 500 μM): 23%
NO-NSAID response rate % (average) ([1]; Regorafenib (5 μM), NO-NSAID 0.1 μM): 32%
NO-NSAID response rate % (average) ([1]; Regorafenib (5 μM), NO-NSAID 1 μM): 30%
NO-NSAID response rate % (average) [1, 12]: 50%
NO-NSAID response rate % (average) ([1]; Regorafenib (5 μM), NO-NSAID 500 μM): 36%
NO-NSAID response rate % (average) ([1]; Selumetinib (5 μM), NO-NSAID 0.1 μM): 34%
NO-NSAID response rate % (average) ([1]; Selumetinib (5 μM), NO-NSAID 1 μM): 48%
NO-NSAID response rate % (average) [1, 13]: 83%
NO-NSAID response rate % (average) ([1]; Selumetinib (5 μM), NO-NSAID 500 μM): 30%
NO-NSAID response rate % (average) ([1]; Sorafenib (5 μM), NO-NSAID 0.1 μM): 5%
NO-NSAID response rate % (average) ([1]; Sorafenib (5 μM), NO-NSAID 1 μM): 20%
NO-NSAID response rate % (average) [1, 14]: 56%
NO-NSAID response rate % (average) ([1]; Sorafenib (5 μM), NO-NSAID 500 μM): 17%
NO-NSAID response rate % (average) ([1]; Sunitinib (5 μM), NO-NSAID 0.1 μM): 13%
NO-NSAID response rate % (average) ([1]; Sunitinib (5 μM), NO-NSAID 1 μM): 7%
NO-NSAID response rate % (average) [1, 15]: 65%
NO-NSAID response rate % (average) ([1]; Sunitinib (5 μM), NO-NSAID 500 μM): 2%
Response rate % (average) ([2]; Afatinib (10 μM)): 24%
Response rate % (average) ([2]; Cabozantinib (5 μM)): 22%
Response rate % (average) ([2]; Dabrafenib (10 μM)): 22%
Response rate % (average) ([2]; Everolimus (5 μM)): 8%
Response rate % (average) ([2]; Infigratinib (15 μM)): 21%
Response rate % (average) ([2]; Lapatinib (5 μM)): −8%
Response rate % (average) ([2]; Lenvatinib (10 μM)): 19%
Response rate % (average) ([2]; Olmutinib (10 μM)): 32%
Response rate % (average) ([2]; Regorafenib (5 μM)): 3%
Response rate % (average) ([2]; Selumetinib (5 μM)): 13%
Response rate % (average) ([2]; Sorafenib (5 μM)): 31%
Response rate % (average) ([2]; Sunitinib (5 μM)): 27%
Response rate % (average) ([3]; Afatinib (10 μM)): 3%
Response rate % (average) ([3]; Cabozantinib (5 μM)): 27%
Response rate % (average) ([3]; Dabrafenib (10 μM)): 25%
Response rate % (average) ([3]; Everolimus (5 μM)): 31%
Response rate % (average) ([3]; Infigratinib (15 μM)): 39%
Response rate % (average) ([3]; Lapatinib (5 μM)): 16%
Response rate % (average) ([3]; Lenvatinib (10 μM)): 23%
Response rate % (average) ([3]; Olmutinib (10 μM)): 30%
Response rate % (average) ([3]; Regorafenib (5 μM)): 18%
Response rate % (average) ([3]; Selumetinib (5 μM)): 17%
Response rate % (average) ([3]; Sorafenib (5 μM)): 24%
Response rate % (average) ([3]; Sunitinib (5 μM)): 18%
